Measured values reported in patent publication US4261921A, “Process for preparation of a crystalline insecticidal pyrethroid enantiomer pair” (priority 1979, dated 1981).

What was measured:
[1] = test system: beet armyworm (Spodoptera exigua); test: Topical Application Test, beet armyworm (BAW); type: in vivo
Protocol: (§1) The compound of this invention was tested for insecticidal activity by applying to the insect appropriate amounts of a toxicant solution containing 5 mg/ml of toxicant in acetone. The tests were read twenty-four hours after application of the toxicant solution and the percent kill determined. The commercial insecticide permethrin, 3-phenoxybenzyl (+) cis-trans-3-(2,2-dichlorovinyl)-2,2-dimethylcyclopropanecarboxylate, was used as the standard for comparison. Relative potency, based on a value of 1.0 for permethrin, was determined by comparing the LD50 for the test compound with that for the standard. The insects employed include southern armyworm (Spodoptera eridania [Cram.]), cabbage looper (Trichoplusia ni [Hubner]), Mexican bean beetle (Epilachna varivestis Muls.), beet armyworm (Spodoptera exigua [Hubner]), milkweed bug (Oncopeltus faciatus [Dallas]), tobacco budworm (Heliothis virescens [Fabricius]), and corn earworm (Heliothis zea [Boddle]).

[2] = test system: corn earworm (Heliothis zea); test: Topical Application Test, corn earworm (CEW); type: in vivo
Protocol: as §1

[3] = test system: cabbage looper (Trichoplusia ni); test: Topical Application Test, cabbage looper (CL); type: in vivo
Protocol: as §1

[4] = test system: Mexican bean beetle (Epilachna varivestis); test: Topical Application Test, Mexican bean beetle (MBB); type: in vivo
Protocol: as §1

[5] = test system: milkweed bug (Oncopeltus fasciatus); test: Topical Application Test, milkweed bug (MWB); type: in vivo
Protocol: as §1

[6] = test system: southern armyworm (Spodoptera eridania); test: Topical Application Test, southern armyworm (SAW); type: in vivo; settings: LD50 compared with permethrin = 1.0
Protocol: as §1

[7] = test system: tobacco budworm (Heliothis virescens); test: Topical Application Test, tobacco budworm (TBW); type: in vivo; settings: LD50 compared with permethrin = 1.0
Protocol: as §1

[8] = test system: Mexican bean beetle (Epilachna varivestis); test: Initial Contact (Foliar) Activity, Mexican bean beetle (MBB); type: in vivo
Protocol: (§2) The compound of the invention was dissolved in a solution of 90% water, 9.75% acetone; and 0.25% octylphenoxypolyethoxyethanol to give a solution having 512 ppm (w/w) active ingredient. Aliquots of this solution were diluted with an appropriate amount of water to provide solutions containing various concentrations of active ingredient. Test organisms and techniques were as follows: The activity against Mexican bean beetle (Epilachna varivestis Muls.) and southern armyworm (Spodoptera eridania [Cram.]) was evaluated by spraying the leaves of pinto bean plants with the test solution and infesting with 3rd instar larvae after the foliage had dried. The activity against the pea aphid (Acyrthosiphon pisum [Harris]) was evaluated on broad bean plants whose leaves were sprayed before infestation with adult aphids. To prevent escape of the insects from the test site, the complete test plant or the incised leaves were placed in capped paper cups. The tests were transferred to a holding room for an exposure period of 48 hours. At the end of this time the dead and living insects were counted, the LD50 was calculated, and the potency relative to the commercial insecticide permethrin, 3-phenoxybenzyl (+) cis,trans-3-(2,2-dichloroethenyl)-2,2-dimethylcyclopropanecarboxylate determined.

[9] = test system: pea aphid (Acyrthosiphon pisum); test: Initial Contact (Foliar) Activity, pea aphid (PA); type: in vivo
Protocol: as §2

[10] = test system: southern armyworm (Spodoptera eridania); test: Initial Contact (Foliar) Activity, southern armyworm (SAW); type: in vivo
Protocol: as §2

insects = test: Topical Application Test, all insects, comparison with permethrin in words; type: in vivo; settings: topical tests, 24 h
Protocol: as §1

[11] = U.S. Pat. No. 4,136,195; cited from earlier work
[12] = LD50 compared with permethrin = 1.0

In the case of `CC1(C)[C@H](C(=O)O[C@H](C#N)c2cccc(Oc3ccccc3)c2)[C@@H]1C=C(Cl)Cl` (relative stereo) [compound of the invention, racemic mixture of (S)-(cyano)(3-phenoxyphenyl)methyl (1R,cis)-3-(2,2-dichloroethenyl)-2,2-dimethylcyclopropanecarboxylate and (R)-(cyano)(3-phenoxyphenyl)methyl (1S,cis)-3-(2,2-dichloroethenyl)-2,2-dimethylcyclopropanecarboxylate], the “Relative Potency” value [1, 12] is reported as 5.1, the LD50 ([1]; read 24 h after application) is reported as 218.8 ng/insect and the “Relative Potency” value [2, 12] is reported as 2.5. The LD50 ([2]; read 24 h after application) was 110.9 ng/insect, the “Relative Potency” value [3, 12] was 9.0 and the LD50 ([3]; read 24 h after application) was 14.9 ng/insect. The “Relative Potency” value [4, 12] was 7.2, the LD50 ([4]; read 24 h after application) was 2.03 ng/insect and the “Relative Potency” value [5, 12] was 37.6. For the same compound, the LD50 ([5]; read 24 h after application) was 16.4 ng/insect, the “Relative Potency” value [6] was 1.0-1.5 and the “Relative Potency” value [7] was 4.2-6.1. The LC50 ([8]; Mexican bean beetle 3rd instar larvae, pinto bean, 48 h exposure) was 1.62-1.86 parts per million, the “Relative Potency” value ([8]; Mexican bean beetle, 48 h, relative to permethrin) was 5.3-8.8 and the LC50 ([9]; pea aphid adults, broad bean, 48 h exposure) was 1.39-21.15 parts per million. The “Relative Potency” value ([9]; pea aphid, 48 h, relative to permethrin) was 2.5-9.8, the LC50 ([10]; southern armyworm 3rd instar larvae, pinto bean, 48 h exposure) was “.22-.38 parts per million” and the “Relative Potency” value ([10]; southern armyworm, 48 h, relative to permethrin) was 9.8-16.1. For the same compound, the “insecticidal activity compared with permethrin” value (insects) was “substantially more active than permethrin”.
In the case of `CC1(C)[C@H](C(=O)O[C@H](C#N)c2cccc(Oc3ccccc3)c2)[C@@H]1C=C(Cl)Cl` [1R,cis-α-S isomer, (S)-(cyano)(3-phenoxyphenyl)methyl (1R,cis)-3-(2,2-dichloroethenyl)-2,2-dimethylcyclopropanecarboxylate], the “activity among the disclosed diastereomers” value [11] is given as “the more active of the disclosed diastereomers”.
